# Assay results taken from patent publication US9604931B2, “Nuclear receptor binding agents” (GTx, Inc., priority 2007, dated 2017).
# “Also recorded” adds a separate entry of the source.
# How the values were obtained:
# [1] = system: genes implicated in lipogenesis, lypolysis, anti-oxidant and other related pathways; test: TaqMan PCR gene expression arrays on tissues of high fat diet mice; format: in vivo, C57BL6 male mice
# Description: RNA extracted from WAT, BAT, liver and muscle were reverse transcribed using cDNA synthesis kit (Applied biosystems, Foster city, CA).
# RNA from liver, muscle, WAT and BAT were applied to these arrays.
# [2] = molecular target: ER-β ligand binding domain (LBD) (Homo sapiens (Human), UniProt Q92731); test: Ligand binding assay of 14m and 12u, ER-β (Example 22A)
# ARPE-19 cells = test: Fluorescent detection of intracellular ROS; format: cell-based, Human; details: 150 μM tBH
# Description: Cells were allowed to adhere overnight. […] Removed and washed cells once with HBSS. […] Each drug concentration was done in triplicates.
# [3] = system: MHC, phospho-ERK, MCIP-1 in left ventricle; test: Angiotensin II model, markers of cardiac hypertrophy; format: in vivo, ovariectomized C57/BJ6 and ERβKO mice
# Experimental: (§1) Thirty, ten week old female ovariectomized C57/BJ6 mice, were obtained from Harlan/Sprague Dawley and were housed in 12 hour on/off lighting and fed rodent chow devoid of soy or most plant products. Ovariectomized ERβKO mice were obtained from Ken Korach, NIEHS. The ERβ mice were originally created by Drs. Smithies, Gustafsson, and colleagues. All mice were identically housed and fed the same chow.
# (§2) This pellet is well documented to produce physiological levels of E2 in the serum of mice.
# RT-PCR was accomplished using the following primers. GAPDH expression served as control gene for all studies. MCIP1, 5′-[…] and […]; GAPDH, 5′-[…] and […]. • For relative protein detection, immunoblots were carried out on protein extracted from the left ventricles of mice from all conditions, following separation by SDS-PAGE and transfer to nitrocellulose. Cardiac myosin heavy chain (MHC) and MCIP antibodies (ABCAM, Cambridge, Mass. and Santa Cruz Biotechnology Inc., Santa Cruz, Calif.), and brain natriuretic peptide (BNP) antibodies (Penninsula Labs, Mountain View, Calif.) were used.
# [4] = system: Ang II induced cardiac fibrosis; test: Angiotensin II model, cardiac fibrosis; format: in vivo, ovariectomized C57/BJ6 and ERβKO mice
# Experimental: as §1, §2
# Left ventricular tissues were fixed in 4% paraformaldehyde solution. Paraffin-embedded tissue sections (5 um) were stained with Masson's trichrome for the presence of interstitial collagen fiber accumulation indicative of cardiac fibrosis. The ratio of interstitial fibrosis to the total left ventricular area was calculated from 10 randomly selected microscopic fields from each of five sections per heart using NIH imageJ analysis software (n=5 mice per condition). Further quantification of collagen deposition was made by ventricular content of hydroxyproline, a breakdown product of collagen, determined by a modified method of Bergman and Loxley (19). The ventricular tissues were homogenized and hydrolyzed in 6 N HCl at 110° C. for 24 h in a sealed reaction vial. The sample was dried and the residue re-suspended in sterile water. 0.5 ml of chloramine T was added for 5 min, then Ehrlich's reagent (3 ml) was added and the mixture left for 18 h at room temperature. The intensity of the red coloration that developed was measured by a spectrophotometer at 558 nm.
# [5] = system: Ang II induced left ventricular hypertrophy; test: Angiotensin II model, cardiac hypertrophy; format: in vivo, ovariectomized C57/BJ6 and ERβKO mice; details: 21 days
# Experimental: as §1, §2
# At inception and after 21 days, the mice were weighed. Blood pressure was measured 4 times during the 21-day period, using the CODA non-invasive blood pressure measuring system. At 21 days the hearts were stopped in diastole by CdCl2 administration. The hearts were removed and weighed and the ratio of heart per total body weight was determined. Next, the hearts were dissected and the left ventricles were weighed and the ratio of left ventricle per total body weight was determined. […] For comparison ERβ gene-deleted mice were subjected to the same conditions of Ang II±E2 or the 12u compound. For histology, the hearts were and sectioned, and stained with hematoxylin and eosin, or Masson stain (for collagen)
# [6] = system: LNCaP cells and human prostate stromal cells xenograft; test: LNCaP-stromal cell xenograft tumor growth; format: in vivo, nude mice; details: 30 mg/kg/day for 21 days
# Experimental: Prostate tumor xenografts were established with LNCaP cells and human prostate stromal cells in nude mice to establish the in vivo anti-proliferative effects of these ER-β NRBAs. A 4:1 ratio (based on cell number) of LNCaP:stroma cells was injected subcutaneously in nude mice and allowed to grow until they attained 100 mm^3 in volume, as measured by calipers. […] Tumor volumes were measured twice a week and percent tumor volume calculated, after 10, 14 and 21 days.
# [7] = system: LPS induced THP-1 macrophage cell adhesion to bEND-3 endothelial cells; test: Macrophage adhesion assay; format: cell-based
# Experimental: To determine the anti-inflammatory effects of ER-β NRBAs in vitro, a macrophage adhesion assay was performed. Macrophages adhere to endothelial cells due to elevated levels of pro-inflammatory cytokines. This principle was used in this assay to determine the effect of one of the ER-NRBAs on bacterial lipopolysaccharide (LPS) induced THP-1 macrophage cell adhesion to bEND-3 endothelial cells.
# [8] = Brown Adipose Tissue, vs high fat diet vehicle, >2-fold, p<0.01
# [9] = Liver, vs high fat diet vehicle, >2-fold, p<0.01
# [10] = White Adipose Tissue, vs high fat diet vehicle, >2-fold, p<0.01
# Sequence of ER-β ligand binding domain (LBD) (Q92731 264-498, species assumed): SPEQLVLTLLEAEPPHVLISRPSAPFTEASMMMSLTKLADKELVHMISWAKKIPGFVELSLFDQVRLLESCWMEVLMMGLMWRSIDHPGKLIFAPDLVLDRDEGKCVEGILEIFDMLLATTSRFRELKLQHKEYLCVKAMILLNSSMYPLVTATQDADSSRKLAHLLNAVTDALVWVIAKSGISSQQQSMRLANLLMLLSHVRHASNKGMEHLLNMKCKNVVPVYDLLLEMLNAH
smiles,measurement,setting,value
"N#Cc1cn(-c2ccc(O)cc2)c(=O)c2c(O)cc(O)cc12 [14m, 6,8-dihydroxy-2-(4-hydroxyphenyl)-1-oxo-1,2-dihydroisoquinoline-4-carbonitrile]","High fat diet increase in expression of lipogenesis genes (LPL, FASN, SREBP-1, PLTP, Dhcr24)",[1]; BAT and WAT,reversed
same,Ddit3 gene expression Increase/Decrease,[1]; [8],Decrease
same,Dhcr24 gene expression Increase/Decrease,[1]; [8],Decreased
same,ER-β gene expression Increase/Decrease,[1]; [8],Increased
same,GPx-3 gene expression Increase/Decrease,[1]; [8],Increase
same,LPL gene expression Increase/Decrease,[1]; [8],Decrease
same,PLTP gene expression Increase/Decrease,[1]; [8],Decrease
same,UCP-1 gene expression Increase/Decrease,[1]; [8],increase in UCP-1 gene expression; also recorded: Increased
same,CIDEA gene expression Increase/Decrease,[1]; [9],Decrease
same,GPx-3 gene expression Increase/Decrease,[1]; [9],Increase
same,Ddit3 gene expression Increase/Decrease,[1]; [10],Decrease
same,FASN gene expression Increase/Decrease,[1]; [10],Decrease
same,LPL gene expression Increase/Decrease,[1]; [10],Decrease
same,SREBP1 gene expression Increase/Decrease,[1]; [10],Decrease
same,Ki,[2],5.35 nM
"O=c1c2c(O)cc(O)cc2c(Br)cn1-c1ccc(O)cc1 [12u, 4-bromo-6,8-dihydroxy-2-(4-hydroxyphenyl)isoquinolin-1(2H)-one]",Prevention of ROS formation / oxidative stress,ARPE-19 cells,did not seem to have any effect
same,Ang II induced elevations in phospho-ERK (p-ERK),[3]; wildtype animals,partially prevented
same,MCIP-1 levels,"[3]; wildtype mice, irrespective of Ang II treatment",robustly elevated MCIP-1 levels
same,Ventricular hydroxyproline content,"[4]; WT mice, not ERβKO",significantly inhibited the hydroxyproline content
same,Ang II induced cardiac fibrosis (interstitial collagen),[4]; only in WT mice,significantly inhibited fibrosis; also recorded: prevented
same,Ang II induced increase in heart size and total heart weight,[5],prevented the increased size
same,Ang II induced left ventricular hypertrophy (LVW/BW),[5]; wildtype but not ERβKO mice,largely prevented; also recorded: prevented Ang II induced cardiac hypertrophy and increased heart size
same,Xenograft tumor growth,[6],inhibited the growth of tumor significantly
same,Adhesion of 3H labeled THP-1 cells to bEND-3 cells,[7],significantly inhibited
